Assay results as given in patent US20080063643A1, “Peptide Derived From Hepatitis C Virus” (priority 2003, published 2008).

Assays:
[1] = tested on: peptide-specific IgG in the serum; experiment: ELISA of peptide-specific IgG in sera of HCV patients and healthy donors (Example 1); format: binding, human; settings: ELISA, cut-off value 1.83; for Healthy donors (n = 10) Positive n: number of 10 healthy donors with serum IgG reactive to the peptide; for HCV patients (n = 12) Positive n: number of 12 HCV patients with serum IgG reactive to the peptide; for Healthy donors (n = 10) Positive %: share of 10 healthy donors with serum IgG reactive to the peptide; for HCV patients (n = 12) Positive %: share of 12 HCV patients with serum IgG reactive to the peptide
Protocol: Synthetic peptides having an HLA-A2-binding motif or an HLA-A24-binding motif from a conserved region of HCV genotype 1b protein were used in this study (Table 1). A peptide derived from HIV having an HLA-A2-binding motif was used as a negative control. All of these peptides were purchased from a commercially supplier. The purity was analyzed by reverse-phase high-pressure liquid chromatography and found to be 90% or higher.
The level of the peptide-specific IgG in the serum was measured by ELISA. First, each peptide was dissolved in dimethyl sulfoxide (DMSO) and stored at −80° C. The peptide was diluted with 0.1 M sodium carbonate/sodium bicarbonate solution containing disuccinimidyl suberate (DSS) as a crosslinker. An ELISA plate was coated with 20 μg/well of peptide at 4° C. overnight. The wells were washed 3 times with 0.05% Tween 20/PBS (PBST), and the plate was blocked with Block Ace (registered trademark) and left overnight at 4° C. Plasma or serum samples were diluted in 1:100, 1:200 and 1:400 with 0.05% Tween 20/Block Ace, and 100 μl of each of the samples was added to each well. After the samples were incubated at 37° C. for 2 hours, the plate was washed 9 times with PBST, 100 μl of a 1:1000 diluted rabbit anti-human IgG (γ-chain specific) was added to each well, and incubated at 37° C. for 2 hours. The plate was washed 9 times with PBST, and 100 μl of 1:100 diluted mouse anti-rabbit IgG conjugated to a horseradish peroxidase-dextran polymer was added to each well, and then the plate was incubated at room temperature for 40 minutes. After the plate was washed, 100 μl of a tetramethylbenzidine substrate solution was added to each well. The reaction was stopped by the addition of 2.0 M phosphoric acid. The cutoff value was calculated as the mean±3 SD of the optical density values of the control obtained from the healthy donors.
The level of IgG that reacts with each of the 62 types of peptides was measured in the sera from 12 patients infected with HCV and 10 healthy donors (HDs) (Table 1).

[2] = tested on: peptide-specific IgG; experiment: ELISA screening of peptide-reactive IgG in plasma of 12 HCV-1b patients and 10 HDs (Example 2); format: binding, human; settings: plasma dilution 1:100; for Reactivity to peptide-specific IgG HD (n = 10): number of 10 HDs above cut-off 0.18 OD; for Reactivity to peptide-specific IgG Patients (n = 12): number of 12 HCV-1b+ patients above cut-off 0.18 OD
From the text: Forty-four types of synthetic peptides that were derived from a highly conserved region of HCV-1b protein and selected based on a high binding score to HLA-A24 molecule (Bioinformatics and Molecular Analysis Section, NIH, Bethesda, Md.) were used. A peptide derived from HIV that has an HLA-A24 binding motif ([…] (SEQ ID NO: 63)) served as a negative control. For the screening of the reactivity of peptide to serum IgG, desalted grade of the peptides (>70%) were purchased from BioSynthesis (Lewisville, Tex.) or SynPep (Dublin, Calif.). A purified peptide (>90%) was used in the subsequent experiments. The plasma level of peptide-specific IgG was measured by an enzyme-linked immunosorbent assay (ELISA). The specificity of anti-peptide IgG in a plasma sample was tested by the absorption and elution of peptide-reactive IgG.
In order to screen for a humoral response to the peptides, the level of IgG reactive to each of the 44 types of peptides was assayed in the plasma of 12 patients infected with HCV-1b. The plasma of 10 HDs was used as a negative control. The level of peptide-reactive IgG was measured by ELISA for serially diluted plasma samples and reported by the values of absorbance (OD) of each sample. The cut-off value of these peptides at a plasma dilution of 1:100 was set at 0.18 OD (mean (0.08)+2SD (0.05×2) of 10 HDs). A significant level (>0.18 OD at a plasma dilution of 1:100) of IgG reactive to NS5A-2132, C-176, E2-488, E1-213, C-173 and NS3-1081 peptides were detectable in the plasma of 12, 11, 10, 9, 8 and 5 patients among the 12 patients, respectively (FIG. 9). As expected, none of these peptides was reactive to the plasma from the 10 HDs.

Row | Substance | Healthy donors (n = 10) Positive n [1] | HCV patients (n = 12) Positive n [1] | Healthy donors (n = 10) Positive % [1] [%] | HCV patients (n = 12) Positive % [1] [%] | Reactivity to peptide-specific IgG HD (n = 10) [2] | Reactivity to peptide-specific IgG Patients (n = 12) [2]
1 | 57 (NLPGCSFSI; Hepatitis C Virus) [Peptide 57] | 1 | 0 | 10 | 0 |  | 
2 | 61 (HYRDVLKEM; Hepatitis C Virus) [Peptide 61] | 1 | 3 | 10 | 25 |  | 
3 | 62 (WFMWCLLLL; Hepatitis C Virus) [Peptide 62] | 0 | 7 | 0 | 58 |  | 
4 | 66 (QFKQKALGLL; Hepatitis C Virus) [Peptide 66] | 0 | 3 | 0 | 25 |  | 
5 | AFTASITSPL [No. 35] |  |  |  |  | 0 | 0
6 | AFYGVWPLL [No. 63] |  |  |  |  | 0 | 0
7 | AYAAQGYKVL [No. 24] |  |  |  |  | 0 | 2
8 | AYALYGVWPL [No. 26] |  |  |  |  | 0 | 2
9 | AYMSKAHGI [No. 11] |  |  |  |  | 0 | 2
10 | AYSQQTRGL [No. 8] |  |  |  |  | 0 | 0
11 | DFKTWLQSKL [No. 36] |  |  |  |  | 0 | 1
12 | EFWESVFTGL [No. 31] |  |  |  |  | 0 | 0
13 | EYVLLLFLL [No. 4] |  |  |  |  | 0 | 2
14 | FFTEVDGVRL [No. 37] |  |  |  |  | 0 | 1
15 | GYGAGVAGAL [No. 23] |  |  |  |  | 0 | 2
16 | GYIPIVGAPL [No. 19] |  |  |  |  | 0 | 1
17 | HYKLFLARL [No. 9] |  |  |  |  | 0 | 0
18 | HYPCTVNFTI [No. 27] |  |  |  |  | 0 | 2
19 | HYRDVLKEM [No. 61] |  |  |  |  | 1 | 3
20 | HYVQMALMKL [No. 21] |  |  |  |  | 0 | 3
21 | IFTITKILL [No. 18] |  |  |  |  | 0 | 3

Row | Substance | Healthy donors (n = 10) Positive n [1] | HCV patients (n = 12) Positive n [1] | Healthy donors (n = 10) Positive % [1] [%] | HCV patients (n = 12) Positive % [1] [%] | Reactivity to peptide-specific IgG HD (n = 10) [2] | Reactivity to peptide-specific IgG Patients (n = 12) [2]
22 | LFLARLIWWL [No. 33] |  |  |  |  | 0 | 0
23 | LYGVWPLLL [No. 7] |  |  |  |  | 0 | 0
24 | MYTNVDQDL [No. 5] |  |  |  |  | 0 | 0
25 | MYVGGVEHRL [No. 20] |  |  |  |  | 0 | 0
26 | NFISGIQYL [No. 15] |  |  |  |  | 0 | 0
27 | PYFVRAHGL [No. 16] |  |  |  |  | 0 | 0
28 | PYIEQGMQL [No. 14] |  |  |  |  | 0 | 1
29 | QFKQKAIGL [No. 17] |  |  |  |  | 0 | 3
30 | QFKQKALGL [No. 64] |  |  |  |  | 0 | 1
31 | QFKQKALGLL [No. 66] |  |  |  |  | 0 | 1
32 | QYLAGLSTL [No. 6] |  |  |  |  | 0 | 0
33 | QYSPGQRVEF [No. 65] |  |  |  |  | 0 | 0
34 | SFAIKWEYVL [No. 39] |  |  |  |  | 0 | 1
35 | SYTWTGALI [No. 60] |  |  |  |  | 0 | 0
36 | TFLVGLNQYL [No. 29] |  |  |  |  | 0 | 2
37 | TYATYGKFL [No. 10] |  |  |  |  | 0 | 1
38 | TYVYDHLTPL [No. 22] |  |  |  |  | 0 | 2
39 | VFVGLILLTL [No. 30] |  |  |  |  | 0 | 2
40 | WFMWCLLLL [No. 62] |  |  |  |  | 0 | 3
41 | YFITRAEAHL [No. 34] |  |  |  |  | 1 | 1
42 | YYRGLDVSVI [No. 28] |  |  |  |  | 0 | 2
